Legend:
[1] = system: acetylcholine release in human skin tissue; test: Acetylcholine release in human skin explant (choline/acetylcholine assay kit); assay type: cell-based; conditions: 10 μL sample every day for 3 days, FIG. 4
VAMP2 = VAMP2 level in human skin explant (fluorescence staining); assay type: cell-based; conditions: 10 μL sample at set concentrations, cultured 72 hours, FIG. 3
[2] = target: T1, SNARE complex (SNAP-25, syntaxin 1a, VAMP-2) (Homo sapiens, UniProt P60880+P63027+Q16623); test: Inhibitory effect on membrane fusion (SNARE liposome fusion, fluorescence intensity); assay type: biochemical; conditions: 100 μM myricetin; FIG. 1
T1 construct: GST (inferred from purification on glutathione agarose beads); made in house; host or cells: E. coli
Procedure: The inhibitory effect of the composition according to an embodiment on the membrane fusion was confirmed. Also, since myricetin was predicted as an active ingredient, the inhibitory effect of 100 μM of myricetin (Sigma-Aldrich) on the membrane fusion was also confirmed.
First, a soluble nethylmaleimide-sensitive factor attachment protein (SNAP) receptor protein was overexpressed in transformed E. coli, and then the expressed protein was selectively purified and obtained by using glutathione agarose beads. Then, […] (POPC, 62 mol %), 1,2-dioleoyl-sn-glycero-3-phosphatidylserine (DOPS, 35 mol %), 1,2-dioleoyl-sn-glycero-3-phosphoserine-N-(7-nitro-2-1,3-benzoxadiazol-4-yl) (NBD-PS, 1.5 mol %), and a fluorescent material, rhodamine (rhodamin-PE, 1.5 mol %) were mixed to prepare a 10 mM fluorescent substance-labeled liposome (v-vesicle). Meanwhile, DOPS and POPC were mixed to a molar concentration of 35:65 to prepare a 50 mM liposome (t-vesicle) that is not labeled with a fluorescent substance. Then, purified synaptosomal-associated protein, SNAP-25, and syntaxin 1a were mixed at a molar concentration of 1:1 and allowed for a reaction for 1 hour at room temperature, followed by mixing with the liposome that is not labeled with a fluorescent substance at a molar ratio of 100:1. […]
Then, the fluorescence intensity thereof was measured.

T1 sequence (P60880 whole entry, the tested form may be a part): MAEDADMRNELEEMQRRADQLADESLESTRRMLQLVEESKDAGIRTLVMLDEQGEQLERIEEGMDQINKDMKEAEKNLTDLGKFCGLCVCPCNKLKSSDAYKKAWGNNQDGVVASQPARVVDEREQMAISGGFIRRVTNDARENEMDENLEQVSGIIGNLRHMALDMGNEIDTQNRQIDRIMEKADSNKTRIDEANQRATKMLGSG
T1 sequence (Q16623 whole entry, the tested form may be a part): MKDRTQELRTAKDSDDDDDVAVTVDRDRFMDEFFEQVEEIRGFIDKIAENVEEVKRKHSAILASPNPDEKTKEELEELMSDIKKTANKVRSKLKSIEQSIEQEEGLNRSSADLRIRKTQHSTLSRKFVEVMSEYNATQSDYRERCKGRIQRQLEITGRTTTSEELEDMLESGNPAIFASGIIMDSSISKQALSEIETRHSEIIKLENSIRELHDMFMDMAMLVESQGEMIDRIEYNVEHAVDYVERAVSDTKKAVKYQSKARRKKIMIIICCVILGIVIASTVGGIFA
T1 sequence (P63027 whole entry, the tested form may be a part): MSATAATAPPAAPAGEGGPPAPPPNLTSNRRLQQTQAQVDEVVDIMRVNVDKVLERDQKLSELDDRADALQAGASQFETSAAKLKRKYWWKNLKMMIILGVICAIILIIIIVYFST

## O=c1c(O)c(-c2cc(O)c(O)c(O)c2)oc2cc(O)cc(O)c12 [myricetin]
[1]
  amount of acetylcholine released in the skin tissue: significantly reduced
VAMP2
  VAMP2 level in the skin tissue: significantly reduced
[2]
  membrane fusion rate: most significantly reduced

From US20230414472A1, “COSMETIC COMPOSITION INCLUDING GARLIC EXTRACT, BLACK TEA EXTRACT, AND GUAVA EXTRACT” (COSMAX INC., priority 2022, published 2023)
